Reference: patent US20240398757A1 (COCRYSTAL PHARMA, INC., priority 2022, published 2024)

These molecules were tested against T1, SARS2 protease (Severe acute respiratory syndrome coronavirus 2, UniProt P0DTD1) (assay: SARS-CoV-2 protease inhibition assay (SARS2 FRET protease assay)). Conditions: IC50 (μM), SARS2 protease 30 nM, peptide substrate 1.3 μM, 120 minutes at 37° C., compounds 20 μM to 0.075 nM.
T1 construct: SARS2 protease was added to a final concentration of 30 nM
Format: biochemical

O=C(N[C@@H](CC1CCCCC1)C(=O)N[C@@H](C[C@@H]1CCNC1=O)C(=O)C(=O)NC1CC1)OC(c1ccccc1)C(F)(F)c1cccc(Cl)c1 (some centres unmarked) [Compound A21] was tested. Which IC50 did it give?
The IC50 was 60 nM.

How did the IC50 turn out when CCC(CC)(c1cccc(Cl)c1)C(OC(=O)N[C@@H](CC(C)C)C(=O)N[C@@H](C[C@@H]1CCNC1=O)C(=O)C(=O)NC1CC1)c1ccc(F)c(F)c1 (some centres unmarked) [Compound A22] was run?
Its IC50 is 320 nM.

With CCCCCOC(=O)N[C@@H](CC(C)C)C(=O)N[C@@H](C[C@@H]1CCNC1=O)C(=O)C(=O)NC1CCCCC1 [Compound A24] as the molecule, how does the IC50 read?
The IC50 was 21400 nM.

For CC(C)C[C@H](NC(=O)O[C@H](c1cccc(Cl)c1)C1(c2cccc(Cl)c2)CC1)C(=O)N[C@@H](C[C@@H]1CCNC1=O)C(=O)C(=O)NC1CC1 [Compound A30], which IC50 is on record?
Its IC50 is 100 nM.

CC(C)C[C@H](NC(=O)O[C@@H](c1cccc(Cl)c1)C1(c2cccc(Cl)c2)CC1)C(=O)N[C@@H](C[C@@H]1CCNC1=O)C(=O)C(=O)NC1CC1 [Compound A31] was tested. Which IC50 did it give?
The IC50 was 7 nM.

Which IC50 does the source give for CCN1CCC(NC(=O)C(=O)[C@H](C[C@@H]2CCNC2=O)NC(=O)[C@H](CC(C)C)NC(=O)OC(c2ccc(F)cc2)C(CC)(CC)c2cccc(Cl)c2)CC1 (some centres unmarked) [Compound A32] here?
The IC50 was 10100 nM.

CCCCC[C@H](NC(=O)O[C@@H](c1ccccc1)C(F)(F)c1cccc(Cl)c1)C(=O)N[C@@H](C[C@@H]1CCNC1=O)C(=O)C(=O)NC1CC1 [Compound A33] was tested. Which IC50 did it give?
Its IC50 is 300 nM.

How did the IC50 turn out when CC(C)(c1cccc(F)c1)C(OC(=O)N[C@@H](CC1CCCCC1)C(=O)N[C@H](C=O)C[C@@H]1CCNC1=O)c1ccccc1 (some centres unmarked) [Compound A34] was run?
The IC50 was 0.1 nM.

Which IC50 does the source give for CCC(CC)(c1cccc(Cl)c1)C(OC(=O)N[C@@H](CC(C)C)C(=O)N[C@@H](C[C@@H]1CCNC1=O)C(=O)C(=O)NC1CC1)c1cccc(Cl)c1 (some centres unmarked) [Compound A35] here?
The IC50 was 1070 nM.

CC(C)C[C@H](NC(=O)OC(c1ccc(Cl)cc1)C1(c2cccc(Cl)c2)CCCCC1)C(=O)N[C@@H](C[C@@H]1CCNC1=O)C(=O)C(=O)NC1CC1 (some centres unmarked) [Compound A36] was tested. Which IC50 did it give?
Its IC50 is 1150 nM.

Which IC50 does the source give for CCCC[C@H](NC(=O)OC(c1ccccc1)C(C)(C)c1cccc(F)c1)C(=O)N[C@H](C=O)C[C@@H]1CCNC1=O (some centres unmarked) [Compound A37] here?
The IC50 was 910 nM.

Which IC50 does the source give for CC(C)C[C@H](NC(=O)O[C@H](c1cccc(Cl)c1)C1(c2cccc(Cl)c2)CC1)C(=O)N[C@H](C=O)C[C@@H]1CCNC1=O [Compound A38] here?
The IC50 was 3.4 nM.

How did the IC50 turn out when CC(C)C[C@H](NC(=O)OC(c1ccccc1)C(C)(C)c1cccc(F)c1)C(=O)NC(C)(C=O)C[C@@H]1CCNC1=O (some centres unmarked) [Compound A39] was run?
Its IC50 is 2300 nM.

CCCC[C@H](NC(=O)OC(c1ccccc1)C1(c2cccc(F)c2)CC1)C(=O)N[C@H](C=O)C[C@@H]1CCNC1=O (some centres unmarked) [Compound A40] was tested. Which IC50 did it give?
The IC50 was 3 nM.

CC(C)C[C@H](NC(=O)OC(c1ccccc1)C(F)(F)c1cccc(Cl)c1)C(=O)N[C@H](C#N)C[C@@H]1CCNC1=O (some centres unmarked) [Compound A41] was tested. Which IC50 did it give?
Its IC50 is 2290 nM.

CC(C)C[C@H](NC(=O)OC(c1ccccc1)C(C)(C)c1cccc(Cl)c1)C(=O)N[C@H](C=O)C[C@@H]1CCCNC1=O (some centres unmarked) [Compound A42] was tested. Which IC50 did it give?
The IC50 was 9 nM.

For CCCC[C@H](NC(=O)OC(c1ccccc1)C(C)(C)c1cccc(F)c1)C(=O)N[C@@H](C[C@@H]1CCNC1=O)C(=O)C(=O)NC1CC1 (some centres unmarked) [Compound A43], which IC50 is on record?
The IC50 was 260 nM.

CCC(CC)(c1cccc(Cl)c1)C(OC(=O)N[C@@H](CC(C)C)C(=O)N[C@@H](C[C@@H]1CCNC1=O)C(=O)C(=O)NC1CC1)c1ccc(Cl)cc1 (some centres unmarked) [Compound A44] was tested. Which IC50 did it give?
Its IC50 is 740 nM.

How did the IC50 turn out when CC(C)C[C@H](NC(=O)O[C@H](c1ccc(Cl)cc1)C1(c2cccc(Cl)c2)CC1)C(=O)N[C@H](C=O)C[C@@H]1CCNC1=O [Compound A45] was run?
The IC50 was 20 nM.

CCC(CC)(c1cccc(Cl)c1)C(OC(=O)N[C@@H](CC(C)C)C(=O)N[C@H](C=O)C[C@@H]1CCNC1=O)c1ccc(Cl)cc1 (some centres unmarked) [Compound A46] was tested. Which IC50 did it give?
The IC50 was 1740 nM.

Which IC50 does the source give for CC(C)(c1cccc(F)c1)C(OC(=O)N[C@@H](CC1CCCCC1)C(=O)N[C@@H](C[C@@H]1CCNC1=O)C(=O)C(=O)NC1CC1)c1ccccc1 (some centres unmarked) [Compound A47] here?
Its IC50 is 620 nM.

Which IC50 does the source give for CC(C)C[C@H](NC(=O)OC(c1ccc(Cl)cc1)C1(c2cccc(Cl)c2)CCCCC1)C(=O)N[C@H](C=O)C[C@@H]1CCNC1=O (some centres unmarked) [Compound A49] here?
The IC50 was 380 nM.

CCNC(=O)C(=O)[C@H](C[C@@H]1CCNC1=O)NC(=O)[C@H](CC1CCCCC1)NC(=O)OC(c1ccccc1)C(F)(F)c1cccc(Cl)c1 (some centres unmarked) [Compound A50] was tested. Which IC50 did it give?
Its IC50 is 10 nM.

How did the IC50 turn out when CCCC[C@H](NC(=O)OC(c1ccccc1)C(F)(F)c1cccc(Cl)c1)C(=O)N[C@@H](C[C@@H]1CCNC1=O)C(=O)C(=O)NC1CC1 (some centres unmarked) [Compound A51] was run?
The IC50 was 130 nM.

How did the IC50 turn out when CC(C)C[C@H](NC(=O)OC(c1ccccc1)C1(c2cccc(Cl)c2)CCNCC1)C(=O)N[C@@H](C[C@@H]1CCNC1=O)C(=O)C(=O)NC1CC1 (some centres unmarked) [Compound A52] was run?
Its IC50 is 1420 nM.

How did the IC50 turn out when CC(C)C[C@H](NC(=O)O[C@@H](c1cccc(Cl)c1)C1(c2cccc(Cl)c2)CCCCC1)C(=O)N[C@H](C=O)C[C@@H]1CCNC1=O [Compound A54] was run?
Its IC50 is 140 nM.

How did the IC50 turn out when CCCC[C@H](NC(=O)OC(c1ccc(F)cc1)C(F)(F)c1cccc(F)c1)C(=O)N[C@H](C=O)C[C@@H]1CCNC1=O (some centres unmarked) [Compound A55] was run?
Its IC50 is 10 nM.

With CCCC[C@H](NC(=O)OC(c1ccccc1)C1(c2cccc(F)c2)CC1)C(=O)N[C@@H](C[C@@H]1CCNC1=O)C(=O)C(=O)NC1CC1 (some centres unmarked) [Compound A56] as the molecule, how does the IC50 read?
Its IC50 is 560 nM.

How did the IC50 turn out when CC(C)C[C@H](NC(=O)OC(c1ccccc1)C(C)(C)c1cccc(Cl)c1)C(=O)N[C@@H](C[C@@H]1CCCNC1=O)C(=O)C(=O)NC1CC1 (some centres unmarked) [Compound A57] was run?
Its IC50 is 1130 nM.

For CCCC[C@H](NC(=O)OC(c1ccc(F)cc1)C(F)(F)c1cccc(F)c1)C(=O)N[C@@H](C[C@@H]1CCNC1=O)C(=O)C(=O)NC1CC1 (some centres unmarked) [Compound A58], which IC50 is on record?
The IC50 was 160 nM.

Which IC50 does the source give for CC(C)C[C@H]1C(=O)N[C@H](C[C@@H]2CCNC2=O)[C@H](O)N1C(=O)OC(c1ccccc1)C1(c2cccc(Cl)c2)CCNCC1 (some centres unmarked) [Compound A59] here?
Its IC50 is 16200 nM.

Which IC50 does the source give for CC(C)C[C@H](NC(=O)O[C@H](c1ccc(Cl)cc1)C1(c2cccc(Cl)c2)CC1)C(=O)N[C@@H](C[C@@H]1CCNC1=O)C(=O)C(=O)NC1CC1 [Compound A60] here?
Its IC50 is 1910 nM.

With CCCC[C@H](NC(=O)O[C@@H](c1ccccc1)C(C)(C)c1cccc(Cl)c1)C(=O)N[C@H](C=O)C[C@@H]1CCNC1=O [Compound A61] as the molecule, how does the IC50 read?
Its IC50 is less than 0.1 nM.

CCCC[C@H](NC(=O)O[C@H](c1ccccc1)C(C)(C)c1cccc(Cl)c1)C(=O)N[C@H](C=O)C[C@@H]1CCNC1=O [Compound A62] was tested. Which IC50 did it give?
The IC50 was 148 nM.

Which IC50 does the source give for CCCC[C@H](NC(=O)OC(c1ccc(F)cc1)C1(c2cccc(F)c2)CC1)C(=O)N[C@H](C=O)C[C@@H]1CCNC1=O (some centres unmarked) [Compound A64] here?
Its IC50 is 3 nM.

CC(C)C[C@H](NC(=O)OC(c1cccc(Cl)c1)C1(c2cccc(Cl)c2)CCCCC1)C(=O)N[C@@H](C[C@@H]1CCNC1=O)C(=O)C(=O)NC1CC1 (some centres unmarked) [Compound A65] was tested. Which IC50 did it give?
Its IC50 is 571 nM.

How did the IC50 turn out when CCC(CC)(c1cccc(Cl)c1)C(OC(=O)N[C@@H](CC(C)C)C(=O)N[C@H](C=O)C[C@@H]1CCNC1=O)c1cccc(Cl)c1 (some centres unmarked) [Compound A66] was run?
The IC50 was 259 nM.

How did the IC50 turn out when O=C[C@H](C[C@@H]1CCNC1=O)NC(=O)[C@H](CC1CCCCC1)NC(=O)OC(c1ccccc1)C(F)(F)c1cccc(F)c1 (stereo partly drawn) [Compound A67, 2,2-difluoro-2-(3-fluorophenyl)-1-phenylethyl ((S)-3-cyclohexyl-1-oxo-1-(((S)-1-oxo-3-((S)-2-oxopyrrolidin-3-yl)propan-2-yl)amino)propan-2-yl)carbamate] was run?
Its IC50 is 2 nM.

For CCCC[C@H](NC(=O)OC(c1ccccc1)C(C)(C)c1cccc(F)c1)C(=O)N[C@@H](C[C@@H]1CCNC1=O)C(=O)C(=O)NCC (some centres unmarked) [Compound A68], which IC50 is on record?
The IC50 was 29 nM.

With CCCC[C@H](NC(=O)OC(c1ccc(F)cc1)C(F)(F)c1cccc(Cl)c1)C(=O)N[C@H](C=O)C[C@@H]1CCNC1=O (some centres unmarked) [Compound A69] as the molecule, how does the IC50 read?
The IC50 was 8 nM.

For CCCC[C@H](NC(=O)OC(c1ccc(F)cc1)C(F)(F)c1cccc(Cl)c1)C(=O)N[C@@H](C[C@@H]1CCNC1=O)C(=O)C(=O)NC1CC1 (some centres unmarked) [Compound A70], which IC50 is on record?
The IC50 was 28 nM.

CCCC[C@H](NC(=O)OC(c1ccc(F)cc1)C1(c2cccc(F)c2)CC1)C(=O)N[C@@H](C[C@@H]1CCNC1=O)C(=O)C(=O)NC1CC1 (some centres unmarked) [Compound A71] was tested. Which IC50 did it give?
Its IC50 is 222 nM.

With CC(C)C[C@H](NC(=O)O[C@@H](c1ccccc1)C(F)(F)c1cccc(Cl)c1)C(=O)N[C@H](C=O)C[C@@H]1CCNC1=O [Compound A72, 2-(3-chlorophenyl)-2,2-difluoro-1-phenylethyl ((S)-4-methyl-1-oxo-1-(((S)-1-oxo-3-((S)-2-oxopyrrolidin-3-yl)propan-2-yl)amino)pentan-2-yl)carbamate] as the molecule, how does the IC50 read?
Its IC50 is less than 0.01 nM.

Which IC50 does the source give for CCCC[C@H](NC(=O)OC(c1ccccc1)C(F)(F)c1cccc(Cl)c1)C(=O)NC(CC1CC(C)(C)NC1=O)C(=O)C(=O)NC1CC1 (some centres unmarked) [Compound A73] here?
Its IC50 is 1390 nM.

For O=C(N[C@@H](CC1CCCCC1)C(=O)N[C@@H](C[C@@H]1CCNC1=O)C(=O)C(=O)NC1CC1)OC(c1ccccc1)C(F)(F)c1cccc(F)c1 (stereo partly drawn) [Compound A74, 2,2-difluoro-2-(3-fluorophenyl)-1-phenylethyl ((S)-3-cyclohexyl-1-(((S)-4-(cyclopropylamino)-3,4-dioxo-1-((S)-2-oxopyrrolidin-3-yl)butan-2-yl)amino)-1-oxopropan-2-yl)carbamate], which IC50 is on record?
Its IC50 is 186 nM.

How did the IC50 turn out when O=C(N[C@@H](CC1CCCCC1)C(=O)N[C@@H](C[C@@H]1CCNC1=O)C(O)S(=O)(=O)O)OC(c1ccccc1)C(F)(F)c1cccc(Cl)c1 (some centres unmarked) [Compound A75] was run?
Its IC50 is 9 nM.

How did the IC50 turn out when CCCC[C@H](NC(=O)OC(c1ccc(F)cc1)C1(c2cccc(Cl)c2)CC1)C(=O)N[C@@H](C[C@@H]1CCNC1=O)C(=O)C(=O)NC1CC1 (some centres unmarked) [Compound A76] was run?
Its IC50 is 53 nM.

How did the IC50 turn out when CCCC[C@H](NC(=O)OC(c1ccccc1)C(F)(F)c1cccc(F)c1)C(=O)N[C@H](C=O)C[C@@H]1CCNC1=O (stereo partly drawn) [Compound A77, 2,2-difluoro-2-(3-fluorophenyl)-1-phenylethyl ((S)-1-oxo-1-(((S)-1-oxo-3-((S)-2-oxopyrrolidin-3-yl)propan-2-yl)amino)hexan-2-yl)carbamate] was run?
The IC50 was 9 nM.

For CCCC[C@H](NC(=O)OC(c1cccc(F)c1)C(F)(F)c1cccc(F)c1)C(=O)N[C@H](C=O)C[C@@H]1CCNC1=O (some centres unmarked) [Compound A78], which IC50 is on record?
Its IC50 is 9 nM.

How did the IC50 turn out when CC(C)C[C@H](NC(=O)O[C@H](c1ccccc1)C(F)(F)c1cccc(Cl)c1)C(=O)N[C@H](C=O)C[C@@H]1CCNC1=O [Compound A79] was run?
The IC50 was 13 nM.
